Series [1] in a line: Vapor pressure in high-pressure cell. In kind it is physicochemical. The procedure: A high-pressure cell equipped with a certified pressure gauge was evacuated by a vacuum pump to remove all permanent gases. 14.21 g of 1233xf and 9.17 g of E-1233zd were then loaded into the cell individually by a stainless steel syringe pump. The high-pressure cell was placed in an orbital shaker in which temperature was controlled at the accuracy of 0.1° C. […] At each temperature the pressure was measured after one hour in order to achieve equilibrium. The accuracy of the pressure gauge was + or −0.1 psia. […] The measured pressure can be seen in Table 1.

Series [2] can be described thus: Flash point, ASTM D3278-96. In kind it is physicochemical. The text has this:
Flammability of a solvent is related to safety of its use. For most application, it is desirable that a solvent have as low a flammable as possible. The flammability of E-1233zd was characterized by flash point measured according to ASTM D3278-96. The flash point of TDCE and HCFC 225 were used as comparative examples.

Series [3] is described as follows: Degreasing of lubricant oil from stainless steel plates. As to conditions: immersion 5 minutes at ambient temperature. The procedure:
(§1) A small quantity of commercial lubricant oil was deposited on the surface of several 30×10 mm stainless steel plates. The mass of each plate was determined with a precision of 0.1 mg before and after deposition. The difference between these two values corresponds to the initial mass of lubricant.
(§2) Once the initial mass is obtained, each steel plate is immersed in a beaker filled with a cleaning composition at ambient temperature for 5 minutes. Thereafter, the steel plates were removed from the beaker and dried in the open air for 5 minutes. Thereafter, the mass of each plate was determined to evaluate the percentage of lubricant oil removed during the test.

The nature of series [4]: Cleaning of silicone oil from stainless steel plates. The following applies: silicon oil; immersion 5 minutes at ambient temperature. The procedure:
as §1, §2
A procedure similar to Example 5 was followed using silicon oil. The results were summarized as in Table 6

Series [5] can be described thus: Defluxing of solder flux from stainless steel plates. The procedure: A small quantity of commercial solder flux was deposited on the surface of several 30×10 mm stainless steel plates. The mass of each plate was determined with a precision of 0.1 mg before deposition and corresponds to the tare. The plates were heated to 250° C. until fusion of the metal from the solder flux (between 1 and 2 min.). The metal could then be easily removed from the plates and only the flux remained on them.
The plates prepared with this method were dried in the open air at ambient temperature for 16 hours. The mass of each dried plate was determined with a precision of 0.1 mg before and after deposition. The difference between these two values corresponds to the initial mass of flux.
Once the initial mass was obtained, half of the steel plates are immersed in a beaker filled with a cleaning composition at ambient temperature for 30 minutes and the other half of the plates immersed in a beaker filled with the cleaning solution for 60 minutes. After the immersion, the steel plates were removed from the beakers and dried in the open air for 5 minutes. Thereafter, the mass of each plate was determined to evaluate the percentage of flux removed during the test.

Series [6] can be described thus: Cleaning of mineral oil from stainless steel plates. As to conditions: immersion 5 minutes at ambient temperature. As for the experimental part: as §1, §2
A procedure similar to Example 5 was followed using commercial natural mineral oil for high pressure.

Series [7] in a line: AMES testing. The following applies: compared with the cis isomer. Type of series: cell-based. The text has this:
A major portion of the HCFO-1233zd of the present invention is the trans isomer. […] A preferred ratio of trans and cis isomers of HCFO-1233zd is less than about 30% weight of the combination of the cis isomer, and preferably less than about 10% of the cis isomer. The most preferred ratio is less than about 3% of the cis isomer. […] The preferred Kauri-butanol value of the composition of the present invention is above 15 and preferably above 20.

The nature of series [8]: Evaporator cleaning (flushing). As to conditions: flushing 10 minutes at ambient temperature; compared with HFC-245fa. As for the experimental part: An evaporator from a refrigeration system contains a known quantity of 300 SUS mineral oil. The evaporator could be flushed with flushing agent for 10 minutes at ambient temperature. Following the flushing period, the quantity of oil and residue removed would be determined. This could be done by measuring the weight of the evaporator following flushing and evacuation of flushing agent and/or by stripping the flushing agent from the removed oil and residue and weighing that. HFC-245fa and trans-HCFO-1233zd would be used as flushing agents.

Series [9] is described as follows: Residual flushing agent after drying of evaporator. The following applies: 25 °C, air flow, 10 minutes drying; compared with trans-HCFO-1233zd. As for the experimental part:
To a clean evaporator from an air conditioning, a measured quantity of flushing liquid would be added to simulate conditions following an open-loop evaporator flushing procedure. The evaporator would be maintained at 25° C. with a slow flow of air passing through the evaporator to assist in drying. The evaporator would be dried such as for 10 minutes and then weighed to measure the quantity of flushing agent remaining.

Regarding `C=C(Cl)C(F)(F)F` [1233xf, 2-chloro-3,3,3-trifluoropropene, reference compound], the Pressure in series [1] (5.0 °C) was 11.5 psia; in series [1] (15.0 °C), 16.8 psia; in series [1] (18.5 °C), 18.3 psia; in series [1] (25.0 °C), 23.8 psia; in [1] (35.0 °C), 32.7 psia. The “Pressure versus atmospheric pressure” value in series [1] (temperature range 15 to 25 °C) is given as above 14.7 psia.
For the molecule `FC(F)(F)/C=C/Cl` [E-1233zd, 1-chloro-3,3,3-trifluoropropene], the Pressure in [1] (5.0 °C) came to 9.1 psia; in [1] (15.0 °C) it was 13.7 psia; in [1] (18.5 °C) it was 14.7 psia; in series [1] (25.0 °C), 19.7 psia; in [1] (35.0 °C), 27.5 psia. In series [1] (temperature range 5 to 15 °C), the “Pressure versus atmospheric pressure” value was “lower than atmospheric”. Moreover, the Flash point result in series [2] is “No”. The values for the Removal rate in series [3], in series [4] and in [6] were 99.10%, 99.10% and 57.2%, respectively. The “Removal rate for 30 mn” value in series [5] (immersion 30 minutes at ambient temperature) was 36.04%. Further, the “Removal rate for 60 mn” value in series [5] (immersion 60 minutes at ambient temperature) is given as 26.24%. Further, the “Genotoxicity in AMES testing” value in series [7] is on record as “significantly lower genotoxicity”. Besides, in series [8], the “Percentage of oil and residue removed during flushing” value is “greater percentage”.
As for `CC(F)(Cl)Cl` [HCFC 141b, 1,1-dichloro-1-fluoroethane, reference compound], the Removal rate is given as 99.60% in series [3] and 98.40% in [4].
`COC(C)=O` [Methyl acetate] came in with a Removal rate in series [6] of 31.67%.
Consider `Cl/C=C/Cl` [TDCE, trans-1,2-dichloroethylene], for which, in series [2], the Flash point result is “Yes”. The same molecule registered a Removal rate in series [6] of 88.51%.
With `FC(F)(F)/C=C/Cl` [cis-HCFO-1233zd, 1-chloro-3,3,3-trifluoropropene], the “Quantity of flushing agent remaining after drying” value in series [9] is given as “more cis-HCFO-1233zd would remain”.
For the molecule dichloropentafluoropropane [HCFC 225], the Flash point entry in series [2] is recorded as “No”.
